The results in this text go back to patent publication US20260167620A1, “MULTIFUNCTIONAL COMPOUND CAPABLE OF DEGRADING BTK KINASE, AND COMPOSITION AND USE” (HANGZHOU HEALZEN THERAPEUTICS CO., LTD., priority 2021, published 2026).

Bounds are passed on as bounds.

Data set [1] has as its system Mino cells. As to the kind of experiment: Inhibitory activity on Mino cell proliferation (MTS). It counts as cell-based. The following applies: Homo sapiens, 72 h or 168 h. The method, then: (§1) The anti-tumor efficacy of the compounds was tested by measuring their inhibitory effects on OCI-LY10 and Mino cell proliferation. OCI-LY10 and Mino cells were cultured in RPM-1640 medium containing […] fetal calf serum. OCI-LY10 and Mino cells were digested, inoculated in a 96-well plate at a cell concentration of 10000 cells/well, and incubated overnight at 37° C., 5% CO2. Compounds of different concentrations (1000 nM, 4-fold dilution, 8 points) were added to the 96-well plate and incubated for 72 h or 168 h at 37° C. and […], and then 20 μL of MTS was added to each well. After incubation for 2 h, 25 μl of 10% SDS was added to each well to terminate the reaction. The absorbance at 490 nm and 650 nm were measured with a microplate reader. IC50 was calculated using GraphPad Prism 5.0.

Data set [2] addresses T1, BTK (Homo sapiens, UniProt Q06187).
T1 construct: endogenous in cells; host or cells: Mino cells
The data set can be described thus: BTK degradation activity test in Mino cells (Westernblot or Elisa). Type of data set: cell-based. The following applies: 24-72 h incubation. The method, then:
The Mino cell line cells are 0.5˜1 million/well in 6-well plates. The compounds are diluted to different concentrations, added to the plate, and after 24-72 h of incubation, the cells are collected. After the cells were lysed, the total protein concentration in each well was determined with a BCA kit. The amount of BTK is determined using the Westernblot or Elisa method.

Data set [3] deals with OCI-LY10 cells. The data set can be described thus: Inhibitory activity on OCI-LY10 cell proliferation (MTS). Type of data set: cell-based. The following applies: Homo sapiens, 72 h or 168 h. How it is done: as §1
The nature of data set [4]: Liver microsomal metabolic stability, human. It counts as in vitro ADME. The following applies: human liver microsomes, NADPH, 37° C. The method, then:
(§2) Under the condition of ice bath, 1 mg of human or Mouse liver microparticles was add to PBS (1 mL) buffer, then NADPH (20 μL) was added, and incubated at 37° C. for 5 min. 10 μL of the compound to be tested was added, then suck several times with a pipette and divide into 3 aliquots of 330 μL; each and then samples were taken at 0, 15, 30, 60 and 120 min respectively. 10 μL of the solution was taken with a pipette each time and added to 490 μL of the solution containing the internal standard compound. The resulting solution was vortexed and then placed on ice, and then sampling at another time point continues. All samples were centrifuged at 10,000 rpm for 10 min, and the supernatant was taken for LC/MS testing. The metabolism of the compound in liver microsomes was calculated based on the peak area.
For orientation: Microsomes from liver hold many membrane-bound enzymes, among them those of drug oxidation.

A short description of data set [5]: Liver microsomal metabolic stability, mouse. The following applies: mouse liver microsomes, NADPH, 37° C. Type of data set: in vitro ADME. The method, then: as §2

T1 sequence (Q06187 whole entry): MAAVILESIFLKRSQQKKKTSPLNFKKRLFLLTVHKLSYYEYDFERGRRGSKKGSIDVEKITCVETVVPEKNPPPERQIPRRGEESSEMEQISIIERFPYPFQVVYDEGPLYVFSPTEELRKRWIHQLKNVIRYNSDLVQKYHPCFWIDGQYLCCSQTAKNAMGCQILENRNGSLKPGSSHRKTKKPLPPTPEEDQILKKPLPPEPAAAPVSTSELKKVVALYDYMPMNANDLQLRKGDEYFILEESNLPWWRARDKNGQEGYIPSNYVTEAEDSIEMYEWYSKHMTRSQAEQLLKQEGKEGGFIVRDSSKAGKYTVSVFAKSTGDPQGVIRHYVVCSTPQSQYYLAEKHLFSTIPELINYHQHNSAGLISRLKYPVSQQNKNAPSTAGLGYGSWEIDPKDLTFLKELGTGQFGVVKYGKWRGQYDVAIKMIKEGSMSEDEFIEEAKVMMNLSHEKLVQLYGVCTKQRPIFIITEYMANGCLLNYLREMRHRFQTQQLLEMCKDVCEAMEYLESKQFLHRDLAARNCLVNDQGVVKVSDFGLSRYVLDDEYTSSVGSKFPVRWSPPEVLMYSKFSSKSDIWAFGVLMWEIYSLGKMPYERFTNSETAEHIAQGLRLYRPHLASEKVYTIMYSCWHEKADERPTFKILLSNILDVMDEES

As usually defined, the IC50 is the concentration needed to halve the response being measured. Read a low IC50 as higher potency. As usually defined, the DC50 is the concentration at which degradation of the target reaches its halfway point. High values mean a less potent degrader, low ones a more potent degrader. Turning to `NC(=O)c1nnc(N2CCCCC2)nc1Nc1ccc(C2CCN(CC3CCN(c4ccc(NC5CCC(=O)NC5=O)cn4)C3)CC2)cc1` (stereo not drawn) [Compound 014, 5-((4-(1-((1-(5-((2,6-dioxopiperidin-3-yl)amino)pyridin-2-yl)pyrrolidin-3-yl)methyl)piperidin-4-yl)phenyl)amino)-3-(piperidin-1-yl)-1,2,4-triazine-6-carboxamide], the IC50 in data set [1] turned out to be 4.14 nM; in data set [3] it was 0.67 nM. Further, the DC50 in data set [2] was under 10 nM.
In the case of `CC(=O)N[C@@H]1CCCN(c2nnc(C(N)=O)c(Nc3ccc(C4CCN(CC5CCN(c6ccc7c(c6)C(=O)N(C6CCC(=O)NC6=O)C7=O)C5)CC4)cc3)n2)C1` (stereo partly drawn) [Compound 016, 3-((R)-3-acetamidopiperidin-1-yl)-5-((4-(1-((1-(2-(2,6-dioxopiperidin-3-yl)-1,3-dioxoisoindolin-5-yl)pyrrolidin-3-yl)methyl)piperidin-4-yl)phenyl)amino)-1,2,4-triazine-6-carboxamide], the results for the IC50 in data set [1] and in data set [3] were 1.45 nM and 0.32 nM, respectively. For the same molecule, in data set [4], the “Thalf (min) Human” value came out at 37 min. In addition, the DC50 in data set [2] is under 10 nM. Further, in data set [5], the “Thalf (min) Mouse” value was determined as 49 min.
Turning to `NC(=O)c1nnc(N2CCOCC2)nc1Nc1ccc(C2CCN(CC3CCN(c4ccc5c(c4)C(=O)N(C4CCC(=O)NC4=O)C5=O)C3)CC2)cc1` (stereo not drawn) [Compound 019, 5-((4-(1-((1-(2-(2,6-dioxopiperidin-3-yl)-1,3-dioxoisoindolin-5-yl)pyrrolidin-3-yl)methyl)piperidin-4-yl)phenyl)amino)-3-morpholino-1,2,4-triazine-6-carboxamide], the figures for the IC50 in data set [1] and in data set [3] were 2.13 nM and 1.1 nM, respectively. The molecule further yielded a DC50 in data set [2] of under 10 nM.
With `CC(=O)N[C@@H]1CCCN(c2nnc(C(N)=O)c(Nc3ccc(C4CCN(CC5CCN(c6ccc7c(c6)C(=O)N(C6CCC(=O)NC6=O)C7=O)CC5)CC4)cc3)n2)C1` (stereo partly drawn) [Compound 023, 3-((R)-3-acetamidopiperidin-1-yl)-5-((4-(1-((1-(2-(2,6-dioxopiperidin-3-yl)-1,3-dioxoisoindolin-5-yl)piperidin-4-yl)methyl)piperidin-4-yl)phenyl)amino)-1,2,4-triazine-6-carboxamide], the IC50 was determined as 6.75 nM in data set [1] and 0.69 nM in data set [3]. The “Thalf (min) Human” value in data set [4] is listed as 20 min. Further, the DC50 in data set [2] is under 10 nM. The “Thalf (min) Mouse” value in data set [5] is 59 min.
On to `COc1cc(N2CCC(CN3CCN(c4ccc(Nc5nc(N6CCCCC6)nnc5C(N)=O)cc4F)CC3)CC2)ccc1N1CCC(=O)NC1=O` [Compound 082, 5-((4-(4-((1-(4-(2,4-dioxotetrahydropyrimidin-1(2H)-yl)-3-methoxyphenyl)piperidin-4-yl)methyl)piperazin-1-yl)-3-fluorophenyl)amino)-3-(piperidin-1-yl)-1,2,4-triazine-6-carboxamide], for which the IC50 in data set [1] stood at 2.3 nM; in data set [3], 0.64 nM. In data set [2], the DC50 is under 10 nM.
Consider `CC(=O)N[C@@H]1CCCN(c2nnc(C(N)=O)c(Nc3ccc(N4CCN(CC5CCN(c6ccc(N7CCC(=O)NC7=O)c(C)c6)CC5)CC4)c(F)c3)n2)C1` [Compound 090, (R)-3-(3-acetamidopiperidin-1-yl)-5-((4-(4-((1-(4-(2,4-dioxotetrahydropyrimidin-1(2H)-yl)-3-methylphenyl)piperidin-4-yl)methyl)piperazin-1-yl)-3-fluorophenyl)amino)-1,2,4-triazine-6-carboxamide], for which the values for the IC50 in data set [1] and in data set [3] were 1.94 nM and 0.89 nM, respectively. Besides, the “Thalf (min) Human” value in data set [4] is recorded as 78 min. The molecule further registered a DC50 in data set [2] of under 10 nM. Besides, the “Thalf (min) Mouse” value in data set [5] is recorded as 63 min.
`NC(=O)c1nnc(N2CCOCC2)nc1Nc1ccc(N2CCN(CC3CCN(c4ccc(C(=O)NC5CCC(=O)NC5=O)nc4)CC3)CC2)c(F)c1` (stereo not drawn) [Compound 100, 5-((4-(4-((1-(6-((2,6-dioxopiperidin-3-yl)carbamoyl)pyridin-3-yl)piperidin-4-yl)methyl)piperazin-1-yl)-3-fluorophenyl)amino)-3-morpholino-1,2,4-triazine-6-carboxamide]: the IC50 came out at 3.83 nM in data set [1] and 0.39 nM in data set [3]. In addition, the DC50 in data set [2] is under 10 nM.
